We go through two compounds from patent US11691972B2, “Compounds for targeted degradation of BRD9” (C4 Therapeutics, Inc., priority 2020, dated 2023).

Each structure is given as a SMILES string.

In series [1] the test system is Synovial Sarcoma PDX model (SA13412). Briefly: Tumor volume in the Synovial Sarcoma PDX model (SA13412). Format: in vivo. The following applies: various concentrations, FIG. 23.
Series [2] concerns synovial sarcoma xenograft model. The series can be described thus: Tumor volume in a synovial sarcoma xenograft model (FIG. 1). Type of series: in vivo.
Another series deals with CYP 2E1 (Homo sapiens, UniProt P05181). The series can be described thus: CYP inhibition 2E1. Format: in vitro ADME.
For the next series, the target named is BRD9 (Rattus norvegicus, UniProt D4ACF5). Briefly: BRD9 degradation in rat cells (24 h). Format: cell-based.
For the next series, the system named is SW982. The series can be described thus: SW982 viability (GI50). Type of series: cell-based. The following applies: Homo sapiens; SW982 cells.
The next series addresses CYP 2B6 (Homo sapiens, UniProt P20813). Briefly: CYP inhibition 2B6. Format: in vitro ADME.
A short description of a further series: Caco-2 permeability. Format: in vitro ADME. As to conditions: human. (In general: Caco-2 monolayers are a common model of the intestinal barrier.)

BRD9, sequence (D4ACF5 1-761): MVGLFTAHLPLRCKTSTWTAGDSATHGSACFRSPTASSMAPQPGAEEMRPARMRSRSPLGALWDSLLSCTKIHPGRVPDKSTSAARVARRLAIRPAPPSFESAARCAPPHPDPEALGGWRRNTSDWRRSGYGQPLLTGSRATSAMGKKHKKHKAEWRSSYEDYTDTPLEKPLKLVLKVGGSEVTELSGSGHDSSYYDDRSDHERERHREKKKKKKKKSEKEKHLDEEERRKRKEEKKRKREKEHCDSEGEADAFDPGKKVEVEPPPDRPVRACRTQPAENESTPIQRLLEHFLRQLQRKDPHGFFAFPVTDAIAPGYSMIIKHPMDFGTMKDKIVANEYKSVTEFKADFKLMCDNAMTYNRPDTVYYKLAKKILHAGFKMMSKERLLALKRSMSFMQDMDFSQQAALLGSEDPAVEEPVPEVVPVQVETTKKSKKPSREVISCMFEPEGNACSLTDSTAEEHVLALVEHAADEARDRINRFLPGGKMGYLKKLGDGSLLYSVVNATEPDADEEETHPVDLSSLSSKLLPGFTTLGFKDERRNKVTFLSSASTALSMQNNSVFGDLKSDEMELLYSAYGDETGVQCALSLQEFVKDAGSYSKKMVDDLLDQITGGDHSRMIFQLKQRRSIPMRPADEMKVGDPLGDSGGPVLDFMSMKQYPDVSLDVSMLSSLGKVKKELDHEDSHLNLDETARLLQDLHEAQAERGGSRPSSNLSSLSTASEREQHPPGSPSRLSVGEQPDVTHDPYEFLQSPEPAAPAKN
CYP 2E1, sequence (P05181 whole entry): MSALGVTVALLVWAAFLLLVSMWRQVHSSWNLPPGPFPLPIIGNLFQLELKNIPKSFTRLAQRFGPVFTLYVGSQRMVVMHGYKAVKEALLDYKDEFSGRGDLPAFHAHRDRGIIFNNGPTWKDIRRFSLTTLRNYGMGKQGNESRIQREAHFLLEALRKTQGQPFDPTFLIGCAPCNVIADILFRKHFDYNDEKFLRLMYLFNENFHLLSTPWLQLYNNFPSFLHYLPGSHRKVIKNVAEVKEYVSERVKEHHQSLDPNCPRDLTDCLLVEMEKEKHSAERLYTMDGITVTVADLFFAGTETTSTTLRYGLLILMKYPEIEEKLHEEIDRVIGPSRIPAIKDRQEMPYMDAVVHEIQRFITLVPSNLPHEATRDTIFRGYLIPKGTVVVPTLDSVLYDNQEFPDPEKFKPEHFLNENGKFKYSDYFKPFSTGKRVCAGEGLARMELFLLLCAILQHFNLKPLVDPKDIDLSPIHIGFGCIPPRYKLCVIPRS
CYP 2B6, sequence (P20813 whole entry): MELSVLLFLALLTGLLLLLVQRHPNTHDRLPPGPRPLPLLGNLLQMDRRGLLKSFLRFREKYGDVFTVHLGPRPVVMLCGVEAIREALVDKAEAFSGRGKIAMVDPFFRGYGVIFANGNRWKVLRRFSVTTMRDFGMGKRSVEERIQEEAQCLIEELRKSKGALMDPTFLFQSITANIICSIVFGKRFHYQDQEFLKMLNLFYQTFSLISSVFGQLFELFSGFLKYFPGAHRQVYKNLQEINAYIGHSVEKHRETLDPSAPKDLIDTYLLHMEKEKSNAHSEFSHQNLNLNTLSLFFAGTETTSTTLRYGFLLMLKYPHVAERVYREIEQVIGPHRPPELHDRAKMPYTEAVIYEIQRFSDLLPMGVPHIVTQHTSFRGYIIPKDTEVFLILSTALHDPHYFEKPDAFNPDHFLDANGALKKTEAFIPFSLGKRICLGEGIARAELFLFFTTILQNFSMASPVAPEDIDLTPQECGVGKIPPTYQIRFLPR

`COc1cc(-c2cn(C)c(=O)c(C)c2C)cc(OC)c1CN1CCC(N2CCN(c3ccc(NC4CCC(=O)NC4=O)cc3F)CC2)C(F)(F)C1` (single isomer, unassigned) [Compound 176, 3-[4-[4-[1-[[2,6-dimethoxy-4-(1,4,5-trimethyl-6-oxo-3-pyridyl)phenyl]methyl]-3,3-difluoro-4-piperidyl]piperazin-1-yl]-3-fluoro-anilino]piperidine-2,6-dione]: in series [1], the “mean tumor volume+SEM” value was “efficacy”.
As a reminder, the IC50 is the point on the concentration scale where inhibition reaches its midpoint. Higher therefore signals weaker potency. A word on the GI50: it is the concentration giving 50% growth inhibition. Low values mean more potent growth inhibition, high ones less potent growth inhibition. By efflux ratio is commonly meant a quotient of directional permeabilities that is used to spot active efflux. Broadly, the Papp A→B is how fast a substance crosses the layer from the apical side. A low value points to poor permeation. One may read the Papp B→A as the apparent permeability from the basolateral to the apical side of a cell layer. On to `COc1cc(-c2cn(C)c(=O)c(C)c2C)cc(OC)c1CN1CCC(N2CCN(c3ccc(NC4CCC(=O)NC4=O)cc3F)CC2)C(F)(F)C1` (stereo not shown) [Compound 172, 3-[4-[4-[1-[[2,6-dimethoxy-4-(1,4,5-trimethyl-6-oxo-3-pyridyl)phenyl]methyl]-3,3-difluoro-4-piperidyl]piperazin-1-yl]-3-fluoro-anilino]piperidine-2,6-dione], for which the “tumor volume after treatment” value in series [2] is “strong effect”. The half-inhibitory concentration (IC50) was determined as 30000 nM on CYP 2E1 and 100 nM against CYP 2B6. Further, at BRD9, the “BRD9 degradation rat cells (24 h), percent” value is listed as 53%. For the same compound, the DC50 at BRD9 (read-out: BRD9 degradation rat cells (24 h), concentration) came out at 1000 nM. This compound also gave a concentration for 50% growth inhibition (GI50) with SW982 of more than 10000 nM. Further, the efflux ratio in “Caco-2 permeability” amounted to 2.64. The Papp A→B in the series “Caco-2 permeability” (A-B) came out at 7.1 ×10⁻⁶ cm/s. In the series “Caco-2 permeability” (B-A), this compound returned an apparent permeability from basolateral to apical (Papp B→A) of 18.7 ×10⁻⁶ cm/s.
